Source: patent US20240336653A1, “PEPTIDE COMPOUND TARGETING ELASTIN-DERIVED PEPTIDES AND USE THEREOF” (Shenzhen Turier Biotech Co., Ltd., priority 2020, published 2024)
*1 amine or outer side, *2 acyl side, *3 side chain or, on linkers, in order; H or OH if unused. Primed or numbered codes have the meaning given here. [ ]: non-standard residue; d: D form. The star is where a group is joined. C20 diacid = O=C(O)CCCCCCCCCCCCCCCCCCC(=O)*; γGlu = O=C(O)[C@H](CCC(=O)[*:2])N[*:1]; Iva = CC[C@](C)(N)C(=O)O; PEG2′ = not defined here

Experiments:
[1] = test system: bleomycin induced pulmonary fibrosis; experiment: Bleomycin (BLM) induced pulmonary fibrosis model in mice; type: in vivo, C57BL/6J mice; conditions: 150 μg/kg daily intraperitoneal, 14 days, FIG. 5; for degree of pulmonary fibrosis (H&E staining and Masson staining): compared with bleomycin control group; for fibronectin in pulmonary parenchyma (α-SMA and Collagen1 immunohistochemistry): compared with bleomycin group
Description: (§1) Molding method: 78 male C57BL/6J mice, 16-18 g in weight and 6-8 weeks old, provided by Laboratory Animal Center, Sun Yat-sen University, randomly divided into 13 groups: 1) normal control group (Normal), n=6; 2) sham-operated saline control group (Saline), n=6; 3) bleomycin model group (BLM), n=6; and 4) model treatment group: administration of 150 μg/kg series compounds to mice, 10 groups in total, n=6/group. On the 7th day after the operation of bleomycin induced pulmonary fibrosis in mice, mice in the model treatment group are treated with drugs (administration frequency: daily administration/150 μg/kg, intraperitoneal injection). Samples are taken 14 days after administration, and pathological observations are recorded.
(§2) The bleomycin (purchased from TCI Shanghai)) induced pulmonary fibrosis model manifests the following pathological features: bronchiectasis, hydropic degeneration of bronchial epithelial cells, obvious edema and widening of alveolar interstitium, and deposition of a large number of fibroblasts and collagen tissue. The alveolar structure almost completely disappears, filled with fibrous connective tissue, and accompanied by inflammatory cell infiltration. After 14 days of administration, the mice in the model treatment group are treated and sampled. Blood is taken from the retrobulbar vein for detection of serological indicators, and […] is taken for pathological analysis.
(§3) H&E staining: paraffin embedded tissue sections are taken and baked at 60° C. for 1 h. Dewaxing and hydration: xylene for 20 minutes→xylene for 20 minutes→absolute alcohol for 15 minutes→absolute alcohol for 15 minutes→95% alcohol for 10 minutes→90% alcohol for 5 minutes→80% alcohol for 5 minutes. Staining: hematoxylin for 7 minutes→rinsing with tap water→differentiation with 1% hydrochloric acid alcohol for 1 s→rinsing with tap water→eosin staining for 15 s-20 s→rinsing with tap water. Dehydration and transparency: 75% alcohol for 1 s→85% alcohol for 1 s→95% alcohol for 1 s→100% alcohol for 1 s→xylene for 1 s→xylene for 1 s. The sections are aired for 30 minutes and sealed with gum.
Masson staining: drying and dewaxing; mordanting; adding celestine blue staining solution for 2-3 min, and washing with water; adding Mayer hematoxylin staining solution and washing with water; differentiating with acid alcohol differentiation liquid for several seconds, and washing with tap water; adding ponceau magenta staining solution and washing with distilled water; treating with phosphomolybdic acid solution; adding aniline blue staining solution for 5 min; treating with weak acid solution for 2 min; dehydration and transparency, airing and sealing with gum.
Immunohistochemistry: drying sections, dewaxing, and then soaking in double distilled water for 5 minutes. […]

TGF-β = experiment: ELISA of TGFβ in serum of mice of the bleomycin model; type: in vivo, C57BL/6J mice; conditions: BLM mice, 150 μg/kg daily intraperitoneal, 14 days, FIG. 6-B
Description: as §1, §2
(§4) The occurrence and development of fibrotic diseases are related to TGF-β and MMP-9 induced EMT process. Matrix metalloproteinases (MMPs) are matrix degrading proteases that degrade all components of extracellular matrix. They participate in the pathophysiological process of pulmonary fibrosis, play an important role in the abnormal remodeling of extracellular matrix and destruction of basement membrane, and promote the recruitment of inflammatory cells and fibroblasts. The increased expression of MMP-9 in pulmonary fibrosis animal models and patients, higher than the normal MMP-9 level, may destroy normal tissue structure and increase the migration of inflammatory cells to the disease site. In order to further explore the inhibitory mechanism of polypeptide drugs on bleomycin induced pulmonary fibrosis, we detect the expression of TGFβ, MMP9 cell factors in serum of mice in each group by ELISA. […] We speculate that its mechanism should be related to TGF-β.

[2] = test system: CCl4 induced hepatic fibrosis; experiment: Carbon tetrachloride (CCl4) induced hepatic fibrosis model in mice; type: in vivo, C57BL/6J mice; conditions: 100.0 μg/kg intraperitoneal, 3 weeks of administration; for aggregation of inflammatory cells in the liver (HE staining) / hepatic fibrosis of mice: FIG. 2; for expression of Collagen I in the liver (immunohistochemistry): FIG. 3; for collagen deposition in the liver (Sirius red staining): FIG. 4
Description: Molding method: 72 male C57BL/6J mice, male, 18-22 g in weight and 8 weeks old, provided by Laboratory Animal Center, Sun Yat-sen University, randomly divided into 12 groups: 1) control group (Oil)+saline, intraperitoneal injection, n=6; 2) model control group (CCl4)+saline, intraperitoneal injection, n=6; administration of CCl4 to mice once every three days for 6 weeks; 3) model administration group (CCl4)+100.0 μg/kg series of compounds (group 10), intraperitoneal injection, n=6/group. The mice in the control group are injected with corn oil at the same volume and frequency according to the administration volume of 20% CCl4 at the weight of 5.0 μL/g. Administration frequency: administration of CCl4 to mice once every three days for 6 weeks. After 3 weeks of administration of CCl4 to mice in the model administration group, peptide compounds 1, 5, 7, 11, 12, 13, 17, 18, 21 and 22 are administered for 3 weeks from the 4th week. CCl4 and Oil are purchased from Shanghai Aladdin Biochemical Technology Co., Ltd.
In the CCl4 induced hepatic fibrosis model, the manifestations are: inflammatory cell infiltration around the central vein area, hydropic degeneration of hepatic cells, and increased accumulation of collagen fibers in the portal area and the hepatic interlobular septum. After three weeks of administration, the mice are treated and sampled. Blood is taken from the retrobulbar vein for detection of serological indicators, and liver tissue is taken for pathological analysis.
as §3, with “Hematoxylin-eosin (H&E) staining: paraffin” for “H&E staining: paraffin”, “s→xylene for Is→xylene for 1” for “s→xylene for 1 s→xylene for 1”
Sirius red staining: drying and dewaxing; standing for 5.0 minutes in double distilled water; Sirius red staining for 60-80 minutes in a dark room; washing for 5 s with 0.5% glacial acetic acid; dehydration and transparency, sealing and taking photos.
Immunohistochemistry: drying sections, dewaxing, and then soaking in double distilled water for 5 minutes. Antigen retrieval: putting the shelf where pathological sections are placed into a beaker containing citric acid buffer (PH=6.0), and keeping it under high temperature and pressure for 15 minutes; taking out the beaker and letting it stand at room temperature until the temperature drops to the room temperature, then taking out the sections and putting them into 3.0% hydrogen peroxide for 10 minutes to block the endogenous peroxidase activity, and then washing them with PBS for three times, 5 minutes each time; sealing the tissues with 1.0% BSA for 1 h; removing 1.0% BSA, adding Collagen I antibody on the tissue according to the proportion recommended in the Description, and staying overnight at 4° C.; taking out the pathological sections next day, adding the second antibody with horseradish peroxidase after the room temperature is restored, incubating it at 37° C. for 60 minutes, and then use DAB (diaminobenzidine) ([…], USA) to develop color; and re-staining with hematoxylin staining solution, washing with tap water for 5 minutes, differentiating with 1% hydrochloric acid alcohol, then washing with tap water for 5 minutes again, dehydrating, airing, sealing, and taking photos (H&E staining solution and Sirius red staining solution are purchased from Sangon Biotech (Shanghai) Co., Ltd., and Collagen I antibody is purchased from CST Corporation).

LX2 cells = experiment: Activity evaluation in LX2 cell model (α-SMA protein expression); type: cell-based, human; conditions: 1.0 μM and 10.0 μM, 48 hours incubation, GAPDH internal reference, FIG. 1
Text: In LX2 cell model (which can be directly used as the evaluation model of hepatic fibrosis cells in vitro, because LX2 cells are human liver activated stellate cells. The LX2 cells are purchased from China Center for Type Culture Collection of the Chinese Academy of Sciences, Shanghai, China), the anti-fibrosis activities of peptide compounds 1-25 are preliminarily screened, and the expression of the marker α-SMA protein of myofibroblast activation is detected. The peptide compounds 1-25 is subjected to cell incubation for 48 hours by using two concentrations (1.0 μM and 10.0 μM). The control group is given the same volume of Dulbecco's modified Eagle medium (DMEM) (purchased from Gibco in the United States), and GAPDH (purchased from TransGen Biotech) as the internal reference, α-actin (α-SMA) is a symbolic feature that distinguishes myoblast cells from myofibroblasts.

MMP9 = experiment: ELISA of MMP9 in serum of mice of the bleomycin model; type: in vivo, C57BL/6J mice; conditions: BLM mice, 150 μg/kg daily intraperitoneal, 14 days, FIG. 6-A
Description: as §1, §2, §4

Substance | degree of pulmonary fibrosis (H&E staining and Masson staining) [1] | fibronectin in pulmonary parenchyma (α-SMA and Collagen1 immunohistochemistry) [1] | concentration of TGF-β in serum of mice (TGF-β) | aggregation of inflammatory cells in the liver (HE staining) [2] | hepatic fibrosis of mice [2] | expression of Collagen I in the liver (immunohistochemistry) [2] | collagen deposition in the liver (Sirius red staining) [2] | inhibiting and improving the activity of α-SMA (expression of α-SMA protein) (LX2 cells) | concentration of MMP9 in serum of mice (MMP9)
Compound 21: cyclic peptide compound, head-to-tail amide (cyclo(V[Iva]GSPSAQDEASPA); SMILES CC[C@]1(C)NC(=O)[C@H](C(C)C)NC(=O)[C@H](C)NC(=O)[C@@H]2CCCN2C(=O)[C@H](CO)NC(=O)[C@H](C)NC(=O)[C@H](CCC(=O)O)NC(=O)[C@H](CC(=O)O)NC(=O)[C@H](CCC(N)=O)NC(=O)[C@H](C)NC(=O)[C@H](CO)NC(=O)[C@@H]2CCCN2C(=O)[C@H](CO)NC(=O)CNC1=O) | significantly reduced | significantly less than that in bleomycin group | significantly reduce | significantly improved | significantly improved | significant therapeutic improvement | significant therapeutic improvement | better effects on inhibiting and improving the activity of α-SMA | significantly reduce
Compound 18: cyclic peptide compound, head-to-tail amide (VVGSPSAQDEASPA; head-to-tail cyclisation; Compound 18) | significantly reduced | significantly less than that in bleomycin group | significantly reduce | significantly improved | significantly improved | significant therapeutic improvement | significant therapeutic improvement | better effects on inhibiting and improving the activity of α-SMA | significantly reduce
(PEG2-PEG2-γGlu-CO(CH2)18CO2H)-Val-Val-Gly-Ser-Pro-Ser-Ala-Gln-Glu-Asp-Ala-Ser-Pro-Leu-NH2 ({C20 diacid-γGlu-PEG2′-PEG2′}-VVGSPSAQEDASPL-NH2) [Compound 12] | significantly reduced | significantly less than that in bleomycin group | significantly reduce | significantly improved | significantly improved | significant therapeutic improvement | significant therapeutic improvement | better effects on inhibiting and improving the activity of α-SMA | significantly reduce
(PEG2-PEG2-γGlu-CO(CH2)18CO2H)-Val-Iva-Gly-Ser-Pro-Ser-Ala-Gln-Glu-Glu-Ala-Ser-Pro-Leu-NH2 ({C20 diacid-γGlu-PEG2′-PEG2′}-V[Iva]GSPSAQEEASPL-NH2) [Compound 11] | significantly reduced | significantly less than that in bleomycin group | significantly reduce | significantly improved | significantly improved | significant therapeutic improvement | significant therapeutic improvement | better effects on inhibiting and improving the activity of α-SMA | significantly reduce
Compound 17: cyclic peptide compound, head-to-tail amide (VVGSPSAQDEASPL; head-to-tail cyclisation; Compound 17) | significantly reduced | significantly less than that in bleomycin group | significantly reduce | significantly improved | significantly improved | significant therapeutic improvement | significant therapeutic improvement | better effects on inhibiting and improving the activity of α-SMA | significantly reduce
